Source: ChEMBL document CHEMBL1150006, “Synthesis of new imidazo[1,2-b]pyridazine isosteres of potent imidazo[4,5-b]pyridine angiotensin II antagonists” (Bioorg Med Chem Lett, 1994)

What was measured:
[1] = target: T1, Type-1 angiotensin II receptor (Oryctolagus cuniculus, UniProt P34976); assay: In vitro binding affinity evaluated by its ability to displace the specific binding ligand 125I-SAR1, Ile8-AII from Angiotensin II receptor, type 1 in rabbit aorta membrane; type: cell membranes
T1 sequence (P34976 whole entry): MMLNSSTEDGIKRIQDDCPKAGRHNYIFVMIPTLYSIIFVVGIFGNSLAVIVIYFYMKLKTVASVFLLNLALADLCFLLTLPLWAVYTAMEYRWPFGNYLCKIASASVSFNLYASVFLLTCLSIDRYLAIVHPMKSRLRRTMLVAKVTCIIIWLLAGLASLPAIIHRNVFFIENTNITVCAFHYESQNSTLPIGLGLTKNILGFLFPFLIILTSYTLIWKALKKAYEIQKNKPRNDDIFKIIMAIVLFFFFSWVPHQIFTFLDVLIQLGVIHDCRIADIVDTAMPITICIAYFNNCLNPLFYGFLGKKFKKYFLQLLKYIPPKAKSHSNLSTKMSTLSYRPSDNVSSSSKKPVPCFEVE

Rattus norvegicus [2] = species: Rattus norvegicus; assay: Percent inhibition exceeded duration of 6 hours; type: functional
Rattus norvegicus [3] = assay: Dose required for more than 90% maximal inhibition of blood pressure response at iv bolus administration in conscious normotensive rats; type: functional
[4] = target: T2, Type-2 angiotensin II receptor (Rattus norvegicus, UniProt P35351); assay: In vitro binding affinity at AT2 receptor determined by its ability to displace the specific binding ligand [125I]-Sar1, Ile8-AII from rat brain membrane
T2 sequence (P35351 whole entry): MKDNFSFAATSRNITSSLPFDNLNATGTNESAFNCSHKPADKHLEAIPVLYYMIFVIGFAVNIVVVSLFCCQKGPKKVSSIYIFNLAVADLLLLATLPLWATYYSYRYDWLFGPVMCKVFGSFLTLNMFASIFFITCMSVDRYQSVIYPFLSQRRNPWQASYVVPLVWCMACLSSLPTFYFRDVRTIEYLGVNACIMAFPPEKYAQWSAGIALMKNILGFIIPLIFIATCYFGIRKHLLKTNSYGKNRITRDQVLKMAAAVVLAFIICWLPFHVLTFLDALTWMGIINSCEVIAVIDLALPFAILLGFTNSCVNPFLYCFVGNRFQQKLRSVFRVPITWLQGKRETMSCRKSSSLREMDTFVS

Compound | IC50 [1] | Inhibition (Rattus norvegicus [2]) | Dose (Rattus norvegicus [3]) | IC50 [4]
CCc1nc2c(C)cc(C)nn2c1Cc1ccc(-c2ccccc2S(=O)(=O)NC(=O)c2ccccc2)cc1 | 0.8 nM |  |  | 
CCc1nc2c(C)cc(C)nn2c1Cc1ccc(-c2ccccc2NS(=O)(=O)C(F)(F)F)cc1 | 1.7 nM |  |  | 
CCc1nc2c(C)cc(C)nn2c1Cc1ccc(-c2ccccc2-c2nn[nH]n2)cc1 | 5.7 nM | >30% | 1 mg/kg | > 10 nM
CCc1nc2c(C)cc(C)nn2c1Cc1ccc(-c2ccccc2C(=O)O)cc1 | 83 nM |  |  | 
